The values that follow come from patent US9868727B2, “Factor XIa inhibitors” (Merck Sharp & Dohme Corp., priority 2014, dated 2018).

Assay [1] addresses T1, purified Human plasma kallikrein (Homo sapiens, UniProt P03952).
T1 construct: yields a heavy chain (371 amino acids) and a light chain (248 amino acids); purchased Enzyme Research Laboratories
As to the kind of experiment: Kallikrein Assay. The assay is classed as biochemical. Particulars: Plasma Kallekrein IC50; fluorogenic substrate Acetyl-K-P-R-AFC, 0.5 nM enzyme, pH 7.4; read-out: PK IC50. How it is done:
The effectiveness of a compound of the present invention as an inhibitor of Kallikrein can be determined using a relevant purified serine protease, and an appropriate synthetic substrate. The rate of hydrolysis of the chromogenic or fluorogenic substrate by the relevant serine protease was measured both in the absence and presence of compounds of the present invention. Assays were conducted at room temperature or at 37° C. […] A decrease in the rate of fluorescence change in the presence of inhibitor is indicative of enzyme inhibition. Such methods are known to one skilled in the art. The results of this assay are expressed as the inhibitory constant, K1.
Kallikrein determinations were made in 50 mM HEPES buffer at pH 7.4 containing 150 mM NaCl, 5 mM CaCl2, and 0.1% PEG 8000 (polyethylene glycol; Fisher Scientific). Determinations were made using purified Human plasma kallikrein at a final concentration of 0.5 nM (Enzyme Research Laboratories) and the synthetic substrate, Acetyl-K—P—R-AFC (Sigma # C6608) at a concentration of […].
Times required to achieve equilibration between enzyme and inhibitor were determined in control experiments. The reactions were performed under linear progress curve conditions and fluorescence increase measured at 405 Ex/510 Em nm. […] IC50 was determined by inflection point from a four parameter logistic curve fit. Ki was calculated using the Cheng Prusoff equation, Ki=IC50/(1+([S]/Km)).

The target of assay [2] is T2, purified human Factor XIa (Homo sapiens, UniProt P03951).
T2 construct: purified human Factor XIa; purchased Sekisui Diagnostics
T2 sequence (P03951 388-625 limits assumed): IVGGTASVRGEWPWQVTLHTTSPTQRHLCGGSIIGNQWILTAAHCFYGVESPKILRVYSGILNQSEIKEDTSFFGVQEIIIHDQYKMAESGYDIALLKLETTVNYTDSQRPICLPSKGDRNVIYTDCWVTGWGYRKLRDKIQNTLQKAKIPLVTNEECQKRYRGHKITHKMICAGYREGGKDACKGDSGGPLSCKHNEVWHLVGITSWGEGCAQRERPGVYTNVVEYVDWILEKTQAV
T2 sequence (P03951 19-387 partner limits assumed): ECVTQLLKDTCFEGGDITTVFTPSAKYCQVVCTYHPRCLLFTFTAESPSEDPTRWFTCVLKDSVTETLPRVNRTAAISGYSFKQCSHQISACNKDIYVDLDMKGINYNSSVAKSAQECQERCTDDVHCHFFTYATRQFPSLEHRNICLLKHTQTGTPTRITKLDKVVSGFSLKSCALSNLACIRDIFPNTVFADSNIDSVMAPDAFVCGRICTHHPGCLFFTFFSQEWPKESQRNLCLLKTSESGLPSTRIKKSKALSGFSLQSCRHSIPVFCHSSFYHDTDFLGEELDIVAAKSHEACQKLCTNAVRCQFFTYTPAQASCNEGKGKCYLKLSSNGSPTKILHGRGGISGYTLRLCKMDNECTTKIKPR
Kind of assay: Factor XIa Assay. The class given is biochemical. Particulars: fluorogenic substrate Z-Gly-Pro-Arg-AFC 100 μM, 40 pM enzyme, pH 7.4, read-out: F11a IC50.

T1 sequence (P03952 391-638 limits assumed): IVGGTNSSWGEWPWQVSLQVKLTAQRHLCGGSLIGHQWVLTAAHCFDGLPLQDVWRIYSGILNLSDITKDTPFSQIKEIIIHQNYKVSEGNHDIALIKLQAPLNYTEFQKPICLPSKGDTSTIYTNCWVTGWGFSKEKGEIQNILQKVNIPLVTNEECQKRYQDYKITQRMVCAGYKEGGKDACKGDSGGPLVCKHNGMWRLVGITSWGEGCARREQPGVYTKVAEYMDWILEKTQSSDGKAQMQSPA
T1 sequence (P03952 20-390 partner limits assumed): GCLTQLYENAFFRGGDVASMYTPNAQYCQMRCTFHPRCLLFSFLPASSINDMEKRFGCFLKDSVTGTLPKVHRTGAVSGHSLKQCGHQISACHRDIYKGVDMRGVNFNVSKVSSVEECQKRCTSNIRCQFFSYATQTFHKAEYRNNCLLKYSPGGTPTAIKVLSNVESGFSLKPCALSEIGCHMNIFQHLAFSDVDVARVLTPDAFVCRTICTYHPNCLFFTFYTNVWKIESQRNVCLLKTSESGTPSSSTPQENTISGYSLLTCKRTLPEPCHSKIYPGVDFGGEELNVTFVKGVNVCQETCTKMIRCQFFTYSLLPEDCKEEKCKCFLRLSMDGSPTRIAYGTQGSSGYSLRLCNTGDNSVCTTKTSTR

As a reminder, the IC50 is the concentration that gives 50% inhibition. As for `O=C(O)c1ccc(-c2cnc(C(Cc3ccccc3)c3ccc(-c4cc(Cl)ccc4-n4cnnn4)c[n+]3[O-])[nH]2)cc1` (single isomer, unassigned) [Example 8], the half-maximal inhibitory concentration (IC50) in assay [1] was found to be 26 nM; in assay [2], 0.67 nM.

Take `O=C(O)c1ccc(-c2cnc(C(Cc3ccccc3)c3ccc(-c4cc(Cl)ccc4-n4cnnn4)c[n+]3[O-])[nH]2)cc1` (single isomer, unassigned) [Example 7]: the half-maximal inhibitory concentration (IC50) in assay [1] stood at 469 nM; in assay [2] it was 10.2 nM.

On to `N#Cc1ccc(-c2c[nH]c(C(Cc3ccc(F)cc3)c3ccc(-c4cc(Cl)ccc4-n4cnnn4)c[n+]3[O-])n2)cc1` (single isomer, unassigned) [Example 20], for which the IC50 in assay [1] was 28.8 nM; in assay [2], 1.54 nM.

Turning to `COC(=O)Nc1ccc(-c2cnc(C(CC3CC3)c3ccc(-c4cc(Cl)ccc4-n4cnnn4)c[n+]3[O-])[nH]2)c(Cl)c1` (single isomer, unassigned) [Example 41], the half-inhibitory concentration (IC50) in assay [1] was 399 nM; in assay [2], 23.7 nM.

For `COC(=O)Nc1ccc(-c2cnc(C(CC3CC3)c3ccc(-c4cc(Cl)ccc4-n4cnnn4)c[n+]3[O-])[nH]2)c(Cl)c1` (single isomer, unassigned) [Example 42], the concentration for half-maximal inhibition (IC50) in assay [1] was 28.1 nM; in assay [2], 0.58 nM.
